The values below come from BindingDB's records for doi:10.1021/acs.jmedchem.1c00742 (H. Lee Moffitt Cancer Center and Research Institute, 2021).

The experiment concerns the target T1, B-cell CLL/lymphoma 9 protein (Homo sapiens, UniProt O00512).
T1 sequence (O00512 whole entry): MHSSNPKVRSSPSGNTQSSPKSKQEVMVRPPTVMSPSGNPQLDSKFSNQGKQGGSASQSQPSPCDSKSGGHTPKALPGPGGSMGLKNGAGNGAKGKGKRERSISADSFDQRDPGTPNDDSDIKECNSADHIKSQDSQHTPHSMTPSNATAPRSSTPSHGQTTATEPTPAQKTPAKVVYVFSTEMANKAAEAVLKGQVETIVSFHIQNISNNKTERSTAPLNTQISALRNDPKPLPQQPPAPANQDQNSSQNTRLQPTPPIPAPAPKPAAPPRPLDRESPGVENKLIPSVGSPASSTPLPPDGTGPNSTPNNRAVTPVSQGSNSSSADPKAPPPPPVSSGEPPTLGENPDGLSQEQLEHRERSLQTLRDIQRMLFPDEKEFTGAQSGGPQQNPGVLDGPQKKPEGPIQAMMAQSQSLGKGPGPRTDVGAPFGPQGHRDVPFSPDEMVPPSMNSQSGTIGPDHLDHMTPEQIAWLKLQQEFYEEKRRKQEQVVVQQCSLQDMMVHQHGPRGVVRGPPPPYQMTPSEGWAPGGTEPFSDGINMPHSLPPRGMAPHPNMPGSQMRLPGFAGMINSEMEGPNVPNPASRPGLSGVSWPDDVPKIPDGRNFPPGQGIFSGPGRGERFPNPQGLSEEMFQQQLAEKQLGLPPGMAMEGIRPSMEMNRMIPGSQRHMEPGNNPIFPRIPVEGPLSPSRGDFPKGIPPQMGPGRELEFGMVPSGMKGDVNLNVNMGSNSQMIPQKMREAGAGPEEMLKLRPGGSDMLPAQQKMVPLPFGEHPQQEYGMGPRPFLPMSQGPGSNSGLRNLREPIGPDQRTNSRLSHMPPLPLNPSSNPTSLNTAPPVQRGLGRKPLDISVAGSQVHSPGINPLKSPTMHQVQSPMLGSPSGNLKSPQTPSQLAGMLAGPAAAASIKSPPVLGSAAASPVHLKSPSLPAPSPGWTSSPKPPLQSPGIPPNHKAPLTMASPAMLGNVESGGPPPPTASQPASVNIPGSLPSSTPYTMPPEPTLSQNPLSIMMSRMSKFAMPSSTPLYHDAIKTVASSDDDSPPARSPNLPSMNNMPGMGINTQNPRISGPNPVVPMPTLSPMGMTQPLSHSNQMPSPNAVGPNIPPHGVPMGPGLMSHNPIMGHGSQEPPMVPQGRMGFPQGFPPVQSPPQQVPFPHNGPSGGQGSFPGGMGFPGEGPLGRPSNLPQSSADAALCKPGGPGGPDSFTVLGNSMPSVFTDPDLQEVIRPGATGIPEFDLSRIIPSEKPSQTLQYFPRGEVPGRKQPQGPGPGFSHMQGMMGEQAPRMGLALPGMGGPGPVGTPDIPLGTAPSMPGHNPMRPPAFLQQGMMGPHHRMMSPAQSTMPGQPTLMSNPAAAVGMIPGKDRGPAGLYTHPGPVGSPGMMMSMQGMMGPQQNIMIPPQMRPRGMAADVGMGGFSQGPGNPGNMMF
Description: Competitive binding affinity to C-terminal 6-His-tagged beta-catenin (1 to 781 residues) (unknown origin) expressed in Escherichia coli BL21 (DE3)- N-terminal biotinylated human BCL9 (350 to 375 residues) assessed as apparent dissociation constant incubated for 2 hrs by AlphaScreen assay. (Alpha assays give light when donor and acceptor beads are brought close together.)

In the case of `CC(C)(Oc1cccc(N2CCC[C@@H](C(=O)N(CCOCCOCCNC(=O)CCCC[C@@H]3SC[C@@H]4NC(=O)N[C@@H]43)Cc3ccc(-c4cn[nH]c4)cc3)C2)c1)C(=O)N1CCNCC1`, the Kd was 770 nM.
